Test results from US20210371491A1, “CHIMERIC ANTIGEN RECEPTORS THAT BIND TO PROSTATE SPECIFIC MEMBRANE ANTIGEN” (Albert-Ludwigs-Universitaet Freiburg, priority 2018, published 2021).
Where “and” joins values, the source holds several entries; their conditions need not be identical. Equal values may be shown once.

Test system: C4-2^luc+ tumor xenografts
Assay: Treatment of C4-2^luc+ tumor xenografts by docetaxel chemotherapy plus intravenous CAR T cells (Example 12)
Format: in vivo, mice
Experimental: (A) Schematic of combined chemotherapy with intravenous CAR T cell therapy. Tumor engraftment was established in animals by subcutaneous injection of 1.5×10^6 cells. Chemotherapy had started at day 1 of the treatment for 3 days by intraperitoneal injection of docetaxel (DOC, 6 mg/kg bw). 48 hours after the last chemotherapy cycle, mice were injected intravenously with single doses of 5×10^6 CAR28 (n=3) or CAR41 T cells (n=3). Control mice were injected with docetaxel alone (n=3) or left untreated (control, n=4). Tumors were visualized via BLI until the end of treatment at day 17. D, day; i.v, intravenous injection; i.p, intraperitoneal; s.c, subcutaneous.
(B) Antitumor activity of CAR28 and CAR41 T cells in combination with docetaxel chemotherapy. Mice with subcutaneously growing C4-2^luc+ tumors (200-250 mm^3) were intraperitoneally injected with docetaxel (DOC; 6 mg/kg bw) on days 1, 2, and 3 of treatment. 48 hours later mice were additionally injected with a single dose of 5×10^6 CAR28 (n=3) or CAR41 T cells (n=3) intravenously. Tumor growth was monitored by BLI. […] Statistical significant differences are indicated by *p<0.05.
Mice with large C4-2^luc+ tumor xenografts (200-250 mm^3) were intraperitoneally injected with 3 daily cycles of docetaxel (DOC, 6 mg/kg bw on days 1, 2, and 3 of treatment) (FIG. 9A). 48 hours after the last cycle, mice were intravenously injected with only one dose of 5×10^6 CAR28 (n=3) CAR41 T cells (n=3), or PBS (n=3) respectively (FIG. 9A). Control animals (n=4) remained completely untreated. Tumor growth was monitored by BLI as described above. […] Compared to the control group (1817.5±165.5 mm^3) tumor end volumes of 338.2±355.6 mm^3 for mice treated with DOC alone and of 599.9±317.2 mm^3 for mice treated with DOC+CAR28 were reached on day 17 (FIG. 9C). […] A mean tumor volume of 50.2±71.0 mm^3 was determined (FIG. 9C).

`CC(=O)O[C@@]12CO[C@@H]1C[C@H](O)[C@@]1(C)C(=O)[C@H](O)C3=C(C)[C@@H](OC(=O)[C@H](O)[C@@H](NC(=O)OC(C)(C)C)c4ccccc4)C[C@@](O)([C@@H](OC(=O)c4ccccc4)[C@H]21)C3(C)C` [DOC, docetaxel] was tested, and the “tumor growth compared to control group (in words)” value (DOC 6 mg/kg bw days 1-3 ± CAR T cells i.v.) was “inhibition of tumor growth”, the “partial remission (PR), mice” value (DOC 6 mg/kg bw i.p. days 1-3, CAR T cells 5×10^6 i.v. 48 h later, tumors 200-250 mm^3) was “⅔” and the mean tumor volume (day 17, DOC 6 mg/kg bw days 1-3 ± CAR T cells i.v.) was 338.2±355.6 mm^3 and 338.3±355.6 mm^3.
